Assay results taken from patent US20110034990A1, “BIOCORRODIBLE IMPLANT WITH ACTIVE COATING” (priority 2009, published 2011).

Text: It has been discovered that squalene is a particularly suitable substance for use in some invention embodiments. […] Thus, for example, lycopene and ubichinon are toxic in concentrations of 10 μmol/l. Squalene, on the other hand, is not toxic, even in concentrations of 100 μmol/l.

Row | Compound | concentration at which the substance is toxic [µM]
1 | ubichinon | 10
2 | CC(C)=CCC/C(C)=C/C=C/C(C)=C/C=C/C(C)=C/C=C/C=C(C)/C=C/C=C(C)/C=C/C=C(\C)CCC=C(C)C [lycopene] | 10
3 | CC(C)=CCCC(C)=CCCC(C)=CCCC=C(C)CCC=C(C)CCC=C(C)C [Squalene, 2,6,10,15,19,23-hexamethyl-2,6,10,14,18,22-tetracosahexaene] | > 100
